From patent publication US10800788B2, “4-(aryl)-N-(3-alkoxyfuro[2,3-b]pyrazin-2-yl)-piperazine-1-carboxamide derivative and antiproliferative effect thereof” (Dongguk University Industry-Academic Cooperation Foundation, priority 2016, dated 2020) come the findings set out here.

Assay [1] has as its system MDA-MB-231 (breast cancer) cell line. As to the kind of experiment: Cell growth inhibition experiment (SRB), MDA-MB-231. It is filed as cell-based, human. To be noted: Homo sapiens, MDA-MB-231, 96 h, 96 hours incubation. The method in brief: (§1)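 Cells in DMEM with 10% FBS were seeded at 2 to 3×10^3 cells/well, dosed the next day and incubated 96 hours at 37° C, 5% CO2. After TCA fixation and sulforhodamine B staining, OD530 was converted to viable cell number with a per-line standard curve. % survival is test over control; triplicate runs.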

The test system of assay [2] is UMRC2 (kidney cancer) cell line. As to the kind of experiment: Cell growth inhibition experiment (SRB), UMRC2. Format: cell-based, human. The note with it: Homo sapiens, UMRC2, 96 h, 96 hours incubation. Put shortly:
as §1

In assay [3] the test system is PANC-1 (pancreatic cancer) cell line. As to the kind of experiment: Cell growth inhibition experiment (SRB), PANC-1. It is filed as cell-based. To be noted: Homo sapiens, PANC-1, 96 h, 96 hours incubation. Put shortly: as §1
The subject of assay [4] is HN31 (head and neck cancer) cell line. Kind of assay: Cell growth inhibition experiment (SRB), HN31. It is filed as cell-based, human. To be noted: Homo sapiens, 96 h, 96 hours incubation. Put shortly: as §1
For assay [5], the system named is A549. Kind of assay: Cell growth inhibition experiment (SRB), A549. To be noted: Homo sapiens, A549, 96 h, 96 hours incubation, read-out: IC50 (μM) for cancer cell line A549. It is filed as cell-based. Put shortly: (§2)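 SRB read-out at 530 nm after 96 h compound exposure; cells plated at 2 to 3×10^3/well the day before treatment. TCA fixation, 0.4% SRB stain, Tris solubilisation. % survival = viable cells (test)/viable cells (control)×100, cell numbers from line-specific OD530 standard curves.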

Assay [6] relates to HEK293. Kind of assay: Cell growth inhibition experiment (SRB), HEK293. It is filed as cell-based, human. To be noted: Homo sapiens, HEK293, 96 h, 96 hours incubation, read-out: IC50 (μM) for cancer cell line HEK293. Put shortly:
as §2

Assay [7] has as its system HUVEC. Kind of assay: Cell growth inhibition experiment (SRB), HUVEC. It is filed as cell-based, human. To be noted: Homo sapiens, HUVEC, 96 h, 96 hours incubation, read-out: IC50 (μM) […]. Put shortly: as §2
In assay [8] the test system is HT29. Kind of assay: Cell growth inhibition experiment (SRB), HT29. To be noted: Homo sapiens, HT-29, 96 h, 96 hours incubation, read-out: IC50 (μM) for cancer cell line HT29. Format: cell-based, human. Put shortly: as §2
For assay [9], the system named is SK-OV-3. Kind of assay: Cell growth inhibition experiment (SRB), SK-OV-3. The note with it: Homo sapiens, SK-OV-3, 96 h, 96 hours incubation, read-out: IC50 (μM) for cancer cell line SK-OV-3. It is filed as cell-based, human. The method in brief: as §2

Bounds are passed on as bounds.

Consider `CCOc1nc2oc(C)cc2nc1NC(=O)N1CCN(c2cccc(OC(F)(F)F)c2)CC1` [Example 40, N-(3-Ethoxy-6-methylfuro[2,3-b]pyrazin-2-yl)-4-(3-(trifluoromethoxy)phenyl)piperazine-1-carboxamide], for which the IC50 in [1], in [2], in [3], in assay [4], in assay [5] and in [6] was < 2.5 µM in each case. For the same molecule, the IC50 in [7], in assay [8] and in assay [9] was < 2.5 µM in each case.
Regarding `CCOc1nc2oc(C)cc2nc1NC(=O)N1CCN(c2cc(C)cc(OC)c2)CC1` [Example 32, N-(3-Ethoxy-6-methylfuro[2,3-b]pyrazin-2-yl)-4-(3-methoxy-5-methylphenyl)piperazine-1-carboxamide], the IC50 was determined as 0.44 µM in assay [1]; 0.52 µM in assay [2]; 0.32 µM in assay [3]; 1.63 µM in assay [4]; 1.39 µM in [5]; 1.12 µM in [6]. Further, the IC50 in assay [7], in [8] and in assay [9] was < 2.5 µM in each case.
With `COc1nc2oc(C)cc2nc1NC(=O)N1CCN(c2cc(F)cc(C(F)(F)F)c2)CC1` [Example 28, 4-(3-Fluoro-5-(trifluoromethyl)phenyl)-N-(3-methoxy-6-methylfuro[2,3-b]pyrazin-2-yl)piperazine-1-carboxamide], the IC50 in assay [1], in [2], in assay [3], in assay [4], in assay [5] and in assay [6] was < 2.5 µM in each case. In addition, the IC50 in assay [7], in assay [8] and in assay [9] was < 2.5 µM each time.
For the molecule `COc1cc(OCCN(C)C)cc(N2CCN(C(=O)Nc3nc4cc(C)oc4nc3OC)CC2)c1` [Example 24, 4-(3-(2-(Dimethylamino)ethoxy)-5-methoxyphenyl)-N-(3-methoxy-6-methylfuro[2,3-b]pyrazin-2-yl)piperazine-1-carboxamide], the IC50 in [1] is 0.12 µM; in [2], 0.36 µM; in [3], 0.44 µM; in assay [4], < 2.5 µM; in assay [5], 0.87 µM; in assay [6], 0.25 µM. Besides, the IC50 in assay [7] was < 2.5 µM; in assay [8], 0.36 µM; in assay [9] it was 0.12 µM.
Turning to `COc1cc(C)cc(N2CCN(C(=O)Nc3nc4cc(Cl)oc4nc3OC)CC2)c1` [Example 42, N-(6-Chloro-3-methoxyfuro[2,3-b]pyrazin-2-yl)-4-(3-methoxy-5-methylphenyl)piperazine-1-carboxamide], the IC50 was found to be 0.36 µM in assay [1]; 1.68 µM in assay [2]; 1.23 µM in [3]; 1.68 µM in assay [4]; 1.87 µM in assay [5]; 1.37 µM in assay [6]. The IC50 in assay [7] is 1.47 µM; in [8] it was 1.87 µM; in assay [9], < 2.5 µM.
For the molecule `COc1nc2occc2nc1NC(=O)N1CCN(c2cc(C)cc(C)c2)CC1` [Example 5, 4-(3,5-Dimethylphenyl)-N-(3-methoxyfuro[2,3-b]pyrazin-2-yl)piperazine-1-carboxamide], the IC50 in assay [1] was 1.12 µM; in assay [2] it was 1.72 µM; in assay [3] it was 1.32 µM; in [4] it was 2.35 µM; in [5], < 2.5 µM; in assay [6] it was < 2.5 µM. The IC50 in assay [7], in assay [8] and in assay [9] was < 2.5 µM in each case.
Turning to `COc1nc2occc2nc1NC(=O)N1CCN(c2cc(F)cc(C(F)(F)F)c2)CC1` [Example 8, 4-(3-Fluoro-5-(trifluoromethyl)phenyl)-N-(3-methoxyfuro[2,3-b]pyrazin-2-yl)piperazine-1-carboxamide], the IC50 in assay [1] is 0.98 µM; in assay [2], 0.88 µM; in [3], 1.98 µM; in [4] it was < 2.5 µM; in assay [5], < 2.5 µM; in assay [6] it was < 2.5 µM. Further, the IC50 in assay [7], in assay [8] and in assay [9] was < 2.5 µM each time.
For `CCOc1nc2oc(Cl)cc2nc1NC(=O)N1CCN(c2cc(C)cc(OC)c2)CC1` [Example 52, N-(6-Chloro-3-ethoxyfuro[2,3-b]pyrazin-2-yl)-4-(3-methoxy-5-methylphenyl)piperazine-1-carboxamide], the IC50 in assay [1] was determined as 1.18 µM; in assay [2], 0.68 µM; in assay [3] it was 1.68 µM; in assay [4], 1.36 µM; in assay [5] it was 1.87 µM; in assay [6] it was 1.74 µM. The figures for the IC50 in assay [7], in [8] and in assay [9] were 1.62 µM, < 2.5 µM and < 2.5 µM, respectively.
Consider `CCOc1nc2oc(Cl)cc2nc1NC(=O)N1CCN(c2cc(OC)cc(OC)c2)CC1` [Example 51, N-(6-Chloro-3-ethoxyfuro[2,3-b]pyrazin-2-yl)-4-(3,5-dimethoxyphenyl)piperazine-1-carboxamide], for which the IC50 is 0.32 µM in assay [1]; 1.68 µM in assay [2]; 1.58 µM in [3]; 1.45 µM in assay [4]; < 2.5 µM in [5]; < 2.5 µM in assay [6]. Besides, the IC50 in assay [7], in assay [8] and in [9] was < 2.5 µM in each case.
With `CCOc1nc2oc(C)cc2nc1NC(=O)N1CCN(c2cc(C)cc(C)c2)CC1` [Example 35, 4-(3,5-Dimethylphenyl)-N-(3-ethoxy-6-methylfuro[2,3-b]pyrazin-2-yl)piperazine-1-carboxamide], the IC50 in assay [1] is 0.24 µM; in [2] it was 0.54 µM; in assay [3], 0.43 µM; in assay [4] it was 0.44 µM; in assay [5] it was 1.02 µM; in [6] it was 1.12 µM. The IC50 in [7], in [8] and in assay [9] was < 2.5 µM throughout.
Consider `CCOc1nc2oc(Cl)cc2nc1NC(=O)N1CCN(c2cc(C)cc(C)c2)CC1` [Example 55, N-(6-Chloro-3-ethoxyfuro[2,3-b]pyrazin-2-yl)-4-(3,5-dimethylphenyl)piperazine-1-carboxamide], for which the IC50 in assay [1] was 0.32 µM; in [2], 0.68 µM; in assay [3], 1.68 µM; in assay [4], 1.75 µM; in [5], < 2.5 µM; in assay [6] it was < 2.5 µM. Also, the IC50 in assay [7], in assay [8] and in [9] was < 2.5 µM each time.
With `COc1cc(OC)cc(N2CCN(C(=O)Nc3nc4cc(Cl)oc4nc3OC)CC2)c1` [Example 41, N-(6-Chloro-3-methoxyfuro[2,3-b]pyrazin-2-yl)-4-(3,5-dimethoxyphenyl)piperazine-1-carboxamide], the IC50 is 0.51 µM in [1]; 0.32 µM in assay [2]; 0.36 µM in [3]; 0.68 µM in [4]; 1.87 µM in assay [5]; 1.66 µM in [6]. For the same molecule, the IC50 in [7] is 1.73 µM; in assay [8] it was 1.87 µM; in assay [9], < 2.5 µM.
With `COc1nc2oc(C)cc2nc1NC(=O)N1CCN(c2cc(C)cc(C)c2)CC1` [Example 25, 4-(3,5-Dimethylphenyl)-N-(3-methoxy-6-methylfuro[2,3-b]pyrazin-2-yl)piperazine-1-carboxamide], the IC50 was 0.15 µM in [1]; < 2.5 µM in [2]; 0.08 µM in assay [3]; 0.17 µM in assay [4]; 0.22 µM in [5]; 0.36 µM in [6]. For the same molecule, the IC50 was found to be 0.13 µM in assay [7], 0.25 µM in assay [8] and 0.63 µM in assay [9].
`CCOc1nc2oc(Cl)cc2nc1NC(=O)N1CCN(c2cc(OC)cc(OCCN(C)C)c2)CC1` [Example 54, N-(6-Chloro-3-ethoxyfuro[2,3-b]pyrazin-2-yl)-4-(3-(2-(dimethylamino)ethoxy)-5-methoxyphenyl)piperazine-1-carboxamide]: the IC50 came out at 1.68 µM in assay [1]; 1.32 µM in assay [2]; 1.88 µM in assay [3]; 1.78 µM in assay [4]; 1.86 µM in assay [5]; 1.65 µM in assay [6]. Also, the IC50 was 1.75 µM in assay [7], < 2.5 µM in assay [8] and < 2.5 µM in assay [9].
Consider `COc1nc2occc2nc1NC(=O)N1CCN(c2cc(F)cc(F)c2)CC1` [Example 7, 4-(3,5-difluorophenyl)-N-(3-methoxyfuro[2,3-b]pyrazin-2-yl)piperazine-1-carboxamide], for which the IC50 in assay [1] is 1.78 µM; in [2], 1.78 µM; in assay [3] it was 1.89 µM; in assay [4], < 2.5 µM; in assay [5], < 2.5 µM; in assay [6] it was < 2.5 µM. Further, the IC50 in assay [7], in assay [8] and in assay [9] was < 2.5 µM each time.
